Data from publication PMC8803738, “Impact of the mouse model and molar amount of injected ligand on the tissue distribution profile of PSMA radioligands” (European Journal of Nuclear Medicine and Molecular Imaging, 2021).

Experiments:
LNCaP tumor-bearing mice = test: Biodistribution in LNCaP tumor-bearing mice; conditions: for AUCTu(0→48 h)-to-AUCKi(0→48 h) ratio: LNCaP model (male mice); for AUCTu(0→48 h)-to-AUCKi(0→48 h) ratio / AUC0→48h, Kidneys / AUC0→48h, LNCaP tumor: average ± SE, non-decay-corrected
[1] = LNCaP model, 4 h p.i., 0.05 nmol
[2] = LNCaP model, 4 h p.i., 1.0 nmol
[3] = LNCaP model, 24 h p.i., 0.05 nmol
[4] = LNCaP model, 24 h p.i., 1.0 nmol
[5] = LNCaP model, 48 h p.i., 0.05 nmol
[6] = LNCaP model, 48 h p.i., 1.0 nmol

Procedure for PC-3 PIP tumor cells: The cells were cultured in RPMI-1640 cell culture medium supplemented with 10% fetal calf serum, L-glutamine, and antibiotics. Puromycin (2 μg/mL) was used to maintain PSMA expression as previously reported [24]. […] The cells were cultured under standard cell culture conditions in RPMI-1640 medium supplemented with 10% fetal calf serum, L-glutamine, antibiotics, and pyruvate (1 mM).
In brief, PC-3 PIP and LNCaP tumor cells were seeded in 12-well plates (3 × 10^5 cells and 1 × 10^6 cells in 2 mL medium/well, respectively) and incubated overnight. Both PSMA radioligands were applied at variable molar concentrations (0.75–500 nM) but at a constant activity concentration of 37.5 kBq/mL. The tumor cells were incubated for 4 h followed by washing steps and detachment of the cells for counting in a γ-counter (Perkin Elmer, Wallac Wizard 1480). The studies were performed in three independent experiments of six replicates. Statistical analysis was performed using a two-way ANOVA with Tukey’s and Sidak’s multiple comparison post-test in Graph Pad Prism (version 8) for different concentrations of the same radioligand and for the two radioligands at the same concentration, respectively. A p value of < 0.05 was considered statistically significant.
Both tumor cell types were kept in a humidified atmosphere at 37 °C and 5% CO2. Routine cell culture
was performed twice a week using PBS/EDTA (2 mM) and trypsin for cell detachment.
internalization of the radioligands into PC-3 PIP and LNCaP tumor cells.
Methods: Uptake and internalization studies were performed with PC-3 PIP and LNCaP tumor cells
using variable concentrations of the respective ligand but constant activity concentrations. PC-3 PIP
and LNCaP cells were seeded in 12-well plates and incubated at 37 °C and 5% CO2 overnight.
Experiments with LNCaP cells were performed with poly -L-lysine-coated well plates to ensure better
cell adherence. The radioligand solution was diluted using saline containing 0.05% bovine serum
albumin (BSA) to avoid adherence to the vial. A defined volume of 25 µL (corresponding to 37.5 kBq) […]

CC(C)Cc1ccc(C(C)C(=O)NC(CCN)C(=O)NCCCCC(NC(=O)CN2CCN(CC(=O)O)CCN(CC(=O)O)CCN(CC(=O)O)CC2)C(=O)NCC2CCC(C(=O)NC(Cc3ccc4ccccc4c3)C(=O)NCCCCC(NC(=O)NC(CCC(=O)O)C(=O)O)C(=O)O)CC2)cc1 (centres unmarked) [[^177Lu]Lu-Ibu-DAB-PSMA, metal not drawn]
Absolute amount of internalized radioligand (PC-3 PIP tumor cells; 0.00075 µM): 14–21 % of total added activity | Internalized fraction (PC-3 PIP tumor cells; 4 h): 23–28 % of total uptake | Cell uptake (PC-3 PIP tumor cells; 4 h, 0.5 µM): ≤ 2% | AUCTu(0→48 h)-to-AUCKi(0→48 h) ratio (LNCaP tumor-bearing mice; 0.05 nmol): 0.89 ± 0.25 | AUCTu(0→48 h)-to-AUCKi(0→48 h) ratio (LNCaP tumor-bearing mice; 1.0 nmol): 1.2 ± 0.2 | AUC0→48h, Kidneys (LNCaP tumor-bearing mice; LNCaP model, 0.05 nmol): 815 ± 103 % IA/g*h | AUC0→48h, LNCaP tumor (LNCaP tumor-bearing mice; LNCaP model, 0.05 nmol): 721 ± 115 % IA/g*h | Increase of tumor-to-kidney AUC0→48 h ratio for high vs low molar amount of injected ligand (LNCaP tumor-bearing mice; LNCaP model, 1.0 nmol vs 0.05 nmol): 1.3 fold | AUC0→48h, Kidneys (LNCaP tumor-bearing mice; LNCaP model, 1.0 nmol): 349 ± 21 % IA/g*h | AUC0→48h, LNCaP tumor (LNCaP tumor-bearing mice; LNCaP model, 1.0 nmol): 402 ± 38 % IA/g*h | Tissue distribution, Blood (LNCaP tumor-bearing mice; [1]): 1.6 ± 0.3 % IA/g | Tissue distribution, Bone (LNCaP tumor-bearing mice; [1]): 0.63 ± 0.33 % IA/g | Tissue distribution, Heart (LNCaP tumor-bearing mice; [1]): 0.61 ± 0.13 % IA/g | Tissue distribution, Intestines (LNCaP tumor-bearing mice; [1]): 0.33 ± 0.03 % IA/g | Tissue distribution, Kidneys (LNCaP tumor-bearing mice; [1]): 58 ± 10 % IA/g | Tissue distribution, LNCaP tumor (LNCaP tumor-bearing mice; [1]): 18 ± 3 % IA/g | Tissue distribution, Liver (LNCaP tumor-bearing mice; [1]): 1.3 ± 0.1 % IA/g | Tissue distribution, Lung (LNCaP tumor-bearing mice; [1]): 1.4 ± 0.2 % IA/g | Tissue distribution, Muscle (LNCaP tumor-bearing mice; [1]): 1.5 ± 1.9 % IA/g | Tissue distribution, Salivary glands (LNCaP tumor-bearing mice; [1]): 0.59 ± 0.14 % IA/g | Tissue distribution, Spleen (LNCaP tumor-bearing mice; [1]): 1.5 ± 0.4 % IA/g | Tissue distribution, Stomach (LNCaP tumor-bearing mice; [1]): 0.32 ± 0.06 % IA/g | Tumor-to-blood ratio (LNCaP tumor-bearing mice; [1]): 12 ± 1 | Tumor-to-kidney ratio (LNCaP tumor-bearing mice; [1]): 0.32 ± 0.03 | Tumor-to-liver ratio (LNCaP tumor-bearing mice; [1]): 14 ± 1 | Tissue distribution, Blood (LNCaP tumor-bearing mice; [2]): 0.87 ± 0.29 % IA/g | Tissue distribution, Bone (LNCaP tumor-bearing mice; [2]): 0.39 ± 0.17 % IA/g | Tissue distribution, Heart (LNCaP tumor-bearing mice; [2]): 0.41 ± 0.11 % IA/g | Tissue distribution, Intestines (LNCaP tumor-bearing mice; [2]): 0.23 ± 0.05 % IA/g | Tissue distribution, Kidneys (LNCaP tumor-bearing mice; [2]): 16 ± 1 % IA/g | Tissue distribution, LNCaP tumor (LNCaP tumor-bearing mice; [2]): 12 ± 2 % IA/g | Tissue distribution, Liver (LNCaP tumor-bearing mice; [2]): 0.82 ± 0.09 % IA/g | Tissue distribution, Lung (LNCaP tumor-bearing mice; [2]): 0.78 ± 0.19 % IA/g | Tissue distribution, Muscle (LNCaP tumor-bearing mice; [2]): 0.22 ± 0.14 % IA/g | Tissue distribution, Salivary glands (LNCaP tumor-bearing mice; [2]): 0.38 ± 0.08 % IA/g | Tissue distribution, Spleen (LNCaP tumor-bearing mice; [2]): 0.45 ± 0.08 % IA/g | Tissue distribution, Stomach (LNCaP tumor-bearing mice; [2]): 0.22 ± 0.06 % IA/g | Tumor-to-blood ratio (LNCaP tumor-bearing mice; [2]): 15 ± 5 | Tumor-to-kidney ratio (LNCaP tumor-bearing mice; [2]): 0.71 ± 0.10 | Tumor-to-liver ratio (LNCaP tumor-bearing mice; [2]): 14 ± 1 | Tissue distribution, Blood (LNCaP tumor-bearing mice; [3]): 0.16 ± 0.03 % IA/g | Tissue distribution, Bone (LNCaP tumor-bearing mice; [3]): < 0.10 % IA/g | Tissue distribution, Heart (LNCaP tumor-bearing mice; [3]): 0.11 ± 0.02 % IA/g | Tissue distribution, Intestines (LNCaP tumor-bearing mice; [3]): 0.10 ± 0.01 % IA/g | Tissue distribution, Kidneys (LNCaP tumor-bearing mice; [3]): 5.9 ± 1.5 % IA/g | Tissue distribution, LNCaP tumor (LNCaP tumor-bearing mice; [3]): 18 ± 7 % IA/g | Tissue distribution, Liver (LNCaP tumor-bearing mice; [3]): 0.48 ± 0.08 % IA/g | Tissue distribution, Lung (LNCaP tumor-bearing mice; [3]): 0.24 ± 0.03 % IA/g | Tissue distribution, Muscle (LNCaP tumor-bearing mice; [3]): < 0.10 % IA/g | Tissue distribution, Salivary glands (LNCaP tumor-bearing mice; [3]): 0.18 ± 0.03 % IA/g | Tissue distribution, Spleen (LNCaP tumor-bearing mice; [3]): 0.35 ± 0.06 % IA/g | Tissue distribution, Stomach (LNCaP tumor-bearing mice; [3]): 0.13 ± 0.04 % IA/g | Tumor-to-blood ratio (LNCaP tumor-bearing mice; [3]): 116 ± 37 | Tumor-to-kidney ratio (LNCaP tumor-bearing mice; [3]): 3.2 ± 1.1 | Tumor-to-liver ratio (LNCaP tumor-bearing mice; [3]): 39 ± 13 | Tissue distribution, Blood (LNCaP tumor-bearing mice; [4]): 0.19 ± 0.03 % IA/g | Tissue distribution, Bone (LNCaP tumor-bearing mice; [4]): 0.14 ± 0.03 % IA/g | Tissue distribution, Heart (LNCaP tumor-bearing mice; [4]): 0.12 ± 0.02 % IA/g | Tissue distribution, Intestines (LNCaP tumor-bearing mice; [4]): 0.12 ± 0.03 % IA/g | Tissue distribution, Kidneys (LNCaP tumor-bearing mice; [4]): 6.8 ± 1.1 % IA/g | Tissue distribution, LNCaP tumor (LNCaP tumor-bearing mice; [4]): 8.8 ± 2.2 % IA/g | Tissue distribution, Liver (LNCaP tumor-bearing mice; [4]): 0.45 ± 0.07 % IA/g | Tissue distribution, Lung (LNCaP tumor-bearing mice; [4]): 0.23 ± 0.03 % IA/g | Tissue distribution, Muscle (LNCaP tumor-bearing mice; [4]): < 0.10 % IA/g | Tissue distribution, Salivary glands (LNCaP tumor-bearing mice; [4]): 0.16 ± 0.02 % IA/g | Tissue distribution, Spleen (LNCaP tumor-bearing mice; [4]): 0.21 ± 0.06 % IA/g | Tissue distribution, Stomach (LNCaP tumor-bearing mice; [4]): 0.23 ± 0.10 % IA/g | Tumor-to-blood ratio (LNCaP tumor-bearing mice; [4]): 46 ± 12 | Tumor-to-kidney ratio (LNCaP tumor-bearing mice; [4]): 1.3 ± 0.2 | Tumor-to-liver ratio (LNCaP tumor-bearing mice; [4]): 20 ± 3 | Tissue distribution, Blood (LNCaP tumor-bearing mice; [5]): 0.10 ± 0.02 % IA/g | Tissue distribution, Bone (LNCaP tumor-bearing mice; [5]): < 0.10 % IA/g | Tissue distribution, Heart (LNCaP tumor-bearing mice; [5]): < 0.10 % IA/g | Tissue distribution, Intestines (LNCaP tumor-bearing mice; [5]): < 0.10 % IA/g | Tissue distribution, Kidneys (LNCaP tumor-bearing mice; [5]): 2.0 ± 0.3 % IA/g | Tissue distribution, LNCaP tumor (LNCaP tumor-bearing mice; [5]): 16 ± 5 % IA/g | Tissue distribution, Liver (LNCaP tumor-bearing mice; [5]): 0.50 ± 0.10 % IA/g | Tissue distribution, Lung (LNCaP tumor-bearing mice; [5]): 0.16 ± 0.04 % IA/g | Tissue distribution, Muscle (LNCaP tumor-bearing mice; [5]): < 0.10 % IA/g | Tissue distribution, Salivary glands (LNCaP tumor-bearing mice; [5]): 0.11 ± 0.01 % IA/g | Tissue distribution, Spleen (LNCaP tumor-bearing mice; [5]): 0.31 ± 0.08 % IA/g | Tissue distribution, Stomach (LNCaP tumor-bearing mice; [5]): < 0.10 % IA/g | Tumor-to-blood ratio (LNCaP tumor-bearing mice; [5]): 155 ± 31 | Tumor-to-kidney ratio (LNCaP tumor-bearing mice; [5]): 7.7 ± 1.7 | Tumor-to-liver ratio (LNCaP tumor-bearing mice; [5]): 32 ± 7 | Tissue distribution, Blood (LNCaP tumor-bearing mice; [6]): 0.09 ± 0.02 % IA/g | Tissue distribution, Bone (LNCaP tumor-bearing mice; [6]): < 0.10 % IA/g | Tissue distribution, Heart (LNCaP tumor-bearing mice; [6]): < 0.10 % IA/g | Tissue distribution, Intestines (LNCaP tumor-bearing mice; [6]): < 0.10 % IA/g | Tissue distribution, Kidneys (LNCaP tumor-bearing mice; [6]): 2.4 ± 0.5 % IA/g | Tissue distribution, LNCaP tumor (LNCaP tumor-bearing mice; [6]): 9.5 ± 1.1 % IA/g | Tissue distribution, Liver (LNCaP tumor-bearing mice; [6]): 0.57 ± 0.09 % IA/g | Tissue distribution, Lung (LNCaP tumor-bearing mice; [6]): 0.14 ± 0.03 % IA/g | Tissue distribution, Muscle (LNCaP tumor-bearing mice; [6]): < 0.10 % IA/g | Tissue distribution, Salivary glands (LNCaP tumor-bearing mice; [6]): < 0.10 % IA/g | Tissue distribution, Spleen (LNCaP tumor-bearing mice; [6]): 0.24 ± 0.04 % IA/g | Tissue distribution, Stomach (LNCaP tumor-bearing mice; [6]): < 0.10 % IA/g | Tumor-to-blood ratio (LNCaP tumor-bearing mice; [6]): 105 ± 14 | Tumor-to-kidney ratio (LNCaP tumor-bearing mice; [6]): 4.2 ± 0.7 | Tumor-to-liver ratio (LNCaP tumor-bearing mice; [6]): 17 ± 2 | Tissue distribution, Blood (LNCaP tumor-bearing mice; LNCaP model, 48 h p.i., 1.0 nmol, listed as [177Lu]Lu-Ibu-DAB-PSMA): < 0.10 % IA/g
